From ChEMBL document CHEMBL3877260, “Synthesis and evaluation of C9 alkoxy analogues of (-)-stepholidine as dopamine receptor ligands” (Eur J Med Chem, 2017) come the findings set out here.

A value given as a limit tells only on which side of the number the result lay.

In data set [1] the target is T1, D(1A) dopamine receptor (Homo sapiens, UniProt P21728). Briefly: Displacement of [3H]SCH23390 from human D1 receptor expressed in HEKT cell membranes after 90 mins by microbeta scintillation counting method.
T1 sequence (P21728 whole entry): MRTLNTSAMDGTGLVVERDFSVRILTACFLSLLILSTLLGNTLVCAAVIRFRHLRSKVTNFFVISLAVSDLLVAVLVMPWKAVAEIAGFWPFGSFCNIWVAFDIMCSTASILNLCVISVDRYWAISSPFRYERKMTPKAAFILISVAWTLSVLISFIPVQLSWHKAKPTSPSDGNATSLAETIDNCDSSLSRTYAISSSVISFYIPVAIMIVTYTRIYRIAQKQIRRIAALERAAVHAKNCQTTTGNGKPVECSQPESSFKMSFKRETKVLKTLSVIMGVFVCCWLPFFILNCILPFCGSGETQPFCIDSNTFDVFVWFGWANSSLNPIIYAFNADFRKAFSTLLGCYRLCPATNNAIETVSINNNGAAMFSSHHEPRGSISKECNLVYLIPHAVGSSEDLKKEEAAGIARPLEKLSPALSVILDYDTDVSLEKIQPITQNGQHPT
Data set [2] has as its target T2, D(3) dopamine receptor (Homo sapiens, UniProt P35462). The experiment in a line: Displacement of [3H]N-methylspiperone from human D3 receptor expressed in HEKT cell membranes after 90 mins by microbeta scintillation counting method.
Data set [3] concerns the target T1, D(1A) dopamine receptor. The experiment in a line: Displacement of [3H]SCH23390 from human D1 receptor expressed in HEKT cell membranes at 10 uM after 90 mins by microbeta scintillation counting method relative to control.
Data set [4] addresses T3, D(2) dopamine receptor (Homo sapiens, UniProt P14416). Briefly: Displacement of [3H]N-methylspiperone from human D2 receptor expressed in HEKT cell membranes at 10 uM after 90 mins by microbeta scintillation counting method relative to control. The conditions noted are these: HEKT cell membranes expressing human D2 receptor, probe [3H]N-methylspiperone.
For data set [5], the target named is T2, D(3) dopamine receptor. Briefly: Displacement of [3H]N-methylspiperone from human D3 receptor expressed in HEKT cell membranes at 10 uM after 90 mins by microbeta scintillation counting method relative to control.
The target of data set [6] is T3, D(2) dopamine receptor. The experiment in a line: Displacement of [3H]N-methylspiperone from human D2 receptor expressed in HEKT cell membranes after 90 mins by microbeta scintillation counting method.
Data set [7] in a line: Selectivity index, ratio of Ki for human D2 receptor expressed in HEKT cell membranes to Ki for human D1 receptor expressed in HEKT cell membranes.
A short description of data set [8]: Antagonist activity at rhesus monkey D1 receptor expressed in HEK293 cells assessed as inhibition of dopamine-induced [35S]GTPgammaS binding. It counts as cell-based, Macaca mulatta.
The target in data set [9] is T2, D(3) dopamine receptor. Briefly: Antagonist activity at human D3 receptor expressed in CHO cells assessed as inhibition of dopamine-induced [35S]GTPgammaS binding. Format: functional, cell-based.

T3 sequence (P14416 whole entry): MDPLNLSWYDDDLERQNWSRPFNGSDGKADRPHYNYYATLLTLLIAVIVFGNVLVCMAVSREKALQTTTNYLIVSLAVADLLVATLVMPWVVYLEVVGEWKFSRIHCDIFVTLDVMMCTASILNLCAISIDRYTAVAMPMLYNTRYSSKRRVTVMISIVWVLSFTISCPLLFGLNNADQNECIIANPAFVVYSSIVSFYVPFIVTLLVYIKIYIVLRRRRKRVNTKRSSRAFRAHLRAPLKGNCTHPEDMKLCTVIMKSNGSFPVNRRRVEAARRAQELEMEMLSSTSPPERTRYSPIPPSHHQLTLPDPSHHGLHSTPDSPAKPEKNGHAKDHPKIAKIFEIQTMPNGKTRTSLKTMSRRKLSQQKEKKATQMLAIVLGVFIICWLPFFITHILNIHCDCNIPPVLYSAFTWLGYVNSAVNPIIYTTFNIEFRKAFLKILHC
T2 sequence (P35462 whole entry): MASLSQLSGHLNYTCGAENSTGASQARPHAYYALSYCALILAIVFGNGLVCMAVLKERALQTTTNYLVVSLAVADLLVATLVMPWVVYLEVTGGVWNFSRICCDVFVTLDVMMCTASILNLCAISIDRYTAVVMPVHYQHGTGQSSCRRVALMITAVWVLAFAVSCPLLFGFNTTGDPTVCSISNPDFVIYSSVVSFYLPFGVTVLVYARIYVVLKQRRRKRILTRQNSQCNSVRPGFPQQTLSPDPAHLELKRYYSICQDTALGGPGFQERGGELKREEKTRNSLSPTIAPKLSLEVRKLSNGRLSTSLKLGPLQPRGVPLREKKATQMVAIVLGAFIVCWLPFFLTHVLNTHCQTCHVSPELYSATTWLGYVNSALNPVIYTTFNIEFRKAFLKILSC

For `CCC(C)Oc1c(O)cc(Br)c2c1CN1CCc3cc(OC)c(O)cc3[C@@H]1C2` (some centres undefined), the Ki was 0.0097 µM on D(1A) dopamine receptor [1], 2.07 µM at D(3) dopamine receptor [2] and 0.331 µM at D(2) dopamine receptor [6]. The inhibition on D(1A) dopamine receptor [3] and on D(3) dopamine receptor [5] was more than 50% throughout. Also, the inhibition at 1.5 h, 10 µM at D(2) dopamine receptor [4] was more than 50%.

For the compound `CCCCCOc1c(O)ccc2c1CN1CCc3cc(OC)c(O)cc3[C@@H]1C2`, the Ki on D(3) dopamine receptor [2] stood at 3.21 µM; on D(2) dopamine receptor [6], 0.023 µM. The compound also returned an inhibition at 1.5 h, 10 µM at D(2) dopamine receptor [4] of more than 50%. Moreover, the inhibition on D(3) dopamine receptor [5] was more than 50%.

In the case of `COc1cc2c(cc1O)[C@@H]1Cc3ccc(O)c(OC)c3CN1CC2` [STEPHOLIDINE], the inhibition on D(1A) dopamine receptor [3] and at D(3) dopamine receptor [5] was more than 50% each time. The compound further showed an inhibition at 1.5 h, 10 µM on D(2) dopamine receptor [4] of more than 50%.

`CCCCCCOc1c(O)ccc2c1CN1CCc3cc(OC)c(O)cc3[C@@H]1C2`: the Ki at D(1A) dopamine receptor [1] stood at 0.077 µM; at D(3) dopamine receptor [2] it was 0.195 µM. Besides, the inhibition at D(1A) dopamine receptor [3] and at D(3) dopamine receptor [5] was more than 50% throughout. The inhibition at 1.5 h, 10 µM on D(2) dopamine receptor [4] was less than 50%.

As to `CCCCOc1c(O)ccc2c1CN1CCc3cc(OC)c(O)cc3[C@@H]1C2`, the inhibition at 1.5 h, 10 µM at D(2) dopamine receptor [4] is less than 50%. This compound also registered an inhibition at D(3) dopamine receptor [5] of more than 50%.

In the case of `CCCCOc1c(O)cc(Br)c2c1CN1CCc3cc(OC)c(O)cc3[C@@H]1C2`, the Ki on D(1A) dopamine receptor [1] came to 0.0023 µM; at D(2) dopamine receptor [6], 0.107 µM. The inhibition on D(1A) dopamine receptor [3] and on D(3) dopamine receptor [5] was more than 50% throughout. At D(2) dopamine receptor [4], this compound yielded an inhibition at 1.5 h, 10 µM of more than 50%.

Consider `CCC(C)Oc1c(O)ccc2c1CN1CCc3cc(OC)c(O)cc3[C@@H]1C2` (some centres undefined), for which the Ki on D(1A) dopamine receptor [1] amounted to 0.065 µM; at D(2) dopamine receptor [6], 0.104 µM. In addition, the inhibition at 1.5 h, 10 µM on D(2) dopamine receptor [4] is more than 50%.

Consider `CCCOc1c(O)cc(Br)c2c1CN1CCc3cc(OC)c(O)cc3[C@@H]1C2`, for which the Ki on D(1A) dopamine receptor [1] is 0.0022 µM; on D(2) dopamine receptor [6] it was 0.07 µM. Further, the inhibition at D(1A) dopamine receptor [3] and on D(3) dopamine receptor [5] was more than 50% in each case. Besides, the inhibition at 1.5 h, 10 µM on D(2) dopamine receptor [4] is more than 50%.

Turning to `CCCCCCOc1c(O)cc(Br)c2c1CN1CCc3cc(OC)c(O)cc3[C@@H]1C2`, the values for the Ki at D(1A) dopamine receptor [1], at D(3) dopamine receptor [2] and at D(2) dopamine receptor [6] were 0.068 µM, 3.17 µM and 0.731 µM, respectively. Further, the “Ratio Ki” value in data set [7] is recorded as more than 10. Further, the inhibition at D(1A) dopamine receptor [3] and on D(3) dopamine receptor [5] was more than 50% in each case. On D(2) dopamine receptor [4], this compound displayed an inhibition at 1.5 h, 10 µM of more than 50%.

With `CCCCCOc1c(O)cc(Br)c2c1CN1CCc3cc(OC)c(O)cc3[C@@H]1C2`, the Ki is 0.032 µM on D(1A) dopamine receptor [1] and 0.398 µM on D(2) dopamine receptor [6]. Also, the inhibition at D(1A) dopamine receptor [3] and on D(3) dopamine receptor [5] was more than 50% each time. At D(2) dopamine receptor [4], this compound yielded an inhibition at 1.5 h, 10 µM of more than 50%.

Take `CCOc1c(O)cc(Br)c2c1CN1CCc3cc(OC)c(O)cc3[C@@H]1C2`: the Ki on D(1A) dopamine receptor [1] is 0.0013 µM; at D(3) dopamine receptor [2], 0.373 µM. In [7], the “Ratio Ki” value is reported as more than 10. Also, the inhibition at D(1A) dopamine receptor [3] and on D(3) dopamine receptor [5] was more than 50% each time. The compound also gave an inhibition at 1.5 h, 10 µM on D(2) dopamine receptor [4] of less than 50%.

With `COCCOc1c(O)cc(Br)c2c1CN1CCc3cc(OC)c(O)cc3[C@@H]1C2`, the values for the Ki at D(1A) dopamine receptor [1] and on D(3) dopamine receptor [2] were 0.0042 µM and 0.726 µM, respectively. Besides, the inhibition at D(1A) dopamine receptor [3] and on D(3) dopamine receptor [5] was more than 50% each time. On D(2) dopamine receptor [4], the inhibition at 1.5 h, 10 µM is less than 50%.

For the compound `CCCOc1c(O)ccc2c1CN1CCc3cc(OC)c(O)cc3[C@@H]1C2`, the values for the Ki on D(1A) dopamine receptor [1], on D(3) dopamine receptor [2] and at D(2) dopamine receptor [6] were 0.012 µM, 0.175 µM and 0.041 µM, respectively. In addition, the inhibition on D(1A) dopamine receptor [3] and on D(3) dopamine receptor [5] was more than 50% in each case. On D(2) dopamine receptor [4], this compound displayed an inhibition at 1.5 h, 10 µM of more than 50%.

Turning to `CCOc1c(O)ccc2c1CN1CCc3cc(OC)c(O)cc3[C@@H]1C2`, the Ki at D(1A) dopamine receptor [1] came out at 0.0053 µM; at D(3) dopamine receptor [2] it was 0.106 µM. In addition, the IC50 in [8] amounted to 0.416 µM. Besides, the inhibition on D(1A) dopamine receptor [3] and at D(3) dopamine receptor [5] was more than 50% throughout. On D(2) dopamine receptor [4], this compound registered an inhibition at 1.5 h, 10 µM of less than 50%. In addition, the Ke at D(3) dopamine receptor [9] is 3.15 nM.

For `COCCOc1c(O)ccc2c1CN1CCc3cc(OC)c(O)cc3[C@@H]1C2`, the figures for the Ki on D(1A) dopamine receptor [1] and on D(2) dopamine receptor [6] were 0.0077 µM and 0.018 µM, respectively. The inhibition at D(1A) dopamine receptor [3] and on D(3) dopamine receptor [5] was more than 50% each time. This compound registered an inhibition at 1.5 h, 10 µM at D(2) dopamine receptor [4] of more than 50%.
